Values after ≈ are worked out from the molar mass of the structure shown. Where a SMILES comes first, the peptide text is derived from it.
Legend:
[1] = tested on: E. coli; assay: E. coli growth monitored via OD600 nm with CecA or OMN6; format: cell-based
Description: An assay was conducted in order to compare the antimicrobial activity of the native peptide Cecropin A (CecA) vs. a peptide of the invention OMN6. E. coli bacteria were cultured with CecA or OMN6 in concentration of 12.5 μM for 17-20 hours. The growth of the bacteria was continuously monitored via spectrophotometry at 600 nm. As bacterial growth progresses, OD600 nm values rise, and where the growth is inhibited OD600 nm values remain constant. […] The bacteria completely overcame the inhibitory effect of CecA after 10 hours. The bacteria then continued to thrive and grow to density similar to that of the CTRL group.

[2] = tested on: human primary erythrocytes; assay: Hemolysis, cell count and MCV of human primary erythrocytes; format: cell-based
Description: Since the peptides of the invention are intended inter-alia to operate in wounds or other damaged tissue, a direct contact with patients' blood may occur. Accordingly, an experiment was conducted in order to assess whether OMN6 has cytotoxic effects on human primary erythrocytes. These cells lack any defense mechanism to protect them against damage to the plasma membrane and therefor are a standard model for evaluating cytotoxic effects on eukaryotic cells. The parameter that was measured was the ability of OMN6 to cause hemolysis, red blood cells death, in human erythrocytes. The experiments were performed on human blood samples using ABX PENTRA DF120 machine routinely used by hospital personnel to conduct such tests.
The Mean Corpuscular Volume (MCV) of the erythrocytes is a well-accepted indication of the cells' health and membrane integrity. The experiment was conducted to assess whether OMN6, which forms pores in bacterial membranes, has the ability to damage human cells plasma-membrane. […] (Table 5).
Table 4 and Table 5: hemolysis and Mean Corpuscular Values (MCV) of human primary erythrocytes were evaluated after treatment with OMN6.

[3] = Preliminary IP safety in mice; format: in vivo
Description: IP administration of OMN6: OMN6 was administered IP to mice in order to evaluate and quantitate any toxic effects if present. OMN6 peptide was administered via intraperitoneal injection according to concentrations and groups detailed in Table 10.
Mice used in this experiment: Outbred Hsd: ICR (CD-1®)—weight 18-20 g. Saline solution (0.9% NaCl) supplemented with 4 mM C2H3NaO2 (sodium acetate) as sham treatment, or OMN6 dissolved in saline were administered as specified in […] A total volume of 100 μl was administered to each animal.
Mortality of mice in experiment group was monitored in comparison to a Sham (CTRL) group. Food and water consumption, post treatment, was monitored by individual weight measurements once every two days. At the end of the experiment, blood was taken from all animals, and a 200 μl volume of complete blood was separated and plasma was analyzed for erythrocyte hemolysis.
Experimental Map: • 1. Mice (six per group) were given a single-dose administration on day 1, according to group specification (Table 10). Food and water consumption (weight analysis) along with mortality of mice in all groups were monitored for 3 days post treatment. At the end of the four day trial, the animals were sacrificed. • 2. Free Hgb (hemoglobin) assay was performed on day 4, on all samples from all groups, for erythrocyte hemolysis analysis. • 3. Water/food availability, temperature and other conditions remained unchanged between the groups for the entire four day trial. • 4. The Erythrocyte hemolysis analysis was performed via hemoglobin assay kit (Sigma-Aldrich, 3 Plaut St. Rehovot, Israel).

[4] = tested on: E. coli Sens. 25922; format: cell-based, Escherichia coli
Description: (§1) In order to determine the MIC values of the peptides, growth and inhibition of various bacteria were monitored after treatment with the peptides of the invention (Table 6).
(§2) E. coli bacteria were cultured with or without OMN6 in increasing concentrations of 0.8-200 μM and with or without Fetal Bovine Serum 10% for 17-20 hours. The growth of the bacteria was continuously monitored via spectrophotometry at 600 nm. As bacterial growth progresses, OD600 nm values rise, and where the growth is inhibited OD600 nm values remain constant.
(§3) The experimental system and parameters described here were used to determine the MIC values of OMN2, OMN6, OMN7 and OMN11 on various bacteria strains (Table 7 and Table 8).

[5] = tested on: E. coli ESBL BAA-198; format: cell-based, Escherichia coli
Description: as §1, §2, §3

[6] = IP single dose 16 mg/kg, four-day experiment

CC[C@H](C)[C@H](NC(=O)CNC(=O)[C@H](CC(=O)O)NC(=O)[C@H](CCCNC(=N)N)NC(=O)[C@@H](NC(=O)[C@H](CC(N)=O)NC(=O)[C@H](CCC(N)=O)NC(=O)CNC(=O)[C@@H](NC(=O)[C@H](CCCCN)NC(=O)[C@H](CCC(=O)O)NC(=O)[C@@H](NC(=O)[C@H](CCCCN)NC(=O)[C@H](CCCCN)NC(=O)[C@H](Cc1ccccc1)NC(=O)[C@H](CC(C)C)NC(=O)[C@H](CCCCN)NC(=O)[C@H](Cc1c[nH]c2ccccc12)NC(=O)[C@H](CCCCN)NC(=O)[C@H](CS)NC(=O)[C@@H](N)CCSC)[C@@H](C)CC)C(C)C)[C@@H](C)CC)C(=O)N[C@H](C(=O)N[C@@H](CCCCN)C(=O)N[C@@H](C)C(=O)NCC(=O)N1CCC[C@H]1C(=O)N[C@@H](C)C(=O)N[C@H](C(=O)N[C@@H](C)C(=O)N[C@H](C(=O)N[C@H](C(=O)NCC(=O)N[C@@H](CCC(N)=O)C(=O)N[C@@H](C)C(=O)N[C@H](C(=O)N[C@@H](CCC(N)=O)C(=O)N[C@H](C(=O)N[C@@H](C)C(=O)N[C@@H](CCCCN)C(=O)N[C@@H](CS)C(N)=O)[C@@H](C)CC)[C@@H](C)O)C(C)C)C(C)C)C(C)C)[C@@H](C)CC [OMN6] (H-MCKWKLFKKIEKVGQNIRDGIIKAGPAVAVVGQATQIAKC-NH2; N-terminus and C-terminus assumed)
Inhibition of E. coli growth (OD600 nm) ([1]; 12.5 μM, 17-20 hours): completely inhibited bacterial growth
Duration of growth inhibition ([1]; 12.5 μM, E. coli): more than 17 hours
Colonies after plating (bactericidal nature) ([1]; E. coli, experiment groups of Example 2 plated): no colonies present
Erythrocytes Mean Corpuscular Volume (MCV) ([2]; OMN6 10 μM, 30 min): 64
Number of live erythrocytes ([2]; OMN6 10 μM, 30 min): 1.69 cells*10^6/ml
Erythrocytes Mean Corpuscular Volume (MCV) ([2]; OMN6 10 μM, 60 min): 64
Number of live erythrocytes ([2]; OMN6 10 μM, 60 min): 1.66 cells*10^6/ml
Erythrocytes Mean Corpuscular Volume (MCV) ([2]; OMN6 10 μM, 120 min): 63
Number of live erythrocytes ([2]; OMN6 10 μM, 120 min): 1.68 cells*10^6/ml
Erythrocytes Mean Corpuscular Volume (MCV) ([2]; OMN6 10 μM, 180 min): 64
Number of live erythrocytes ([2]; OMN6 10 μM, 180 min): 1.67 cells*10^6/ml
Erythrocytes Mean Corpuscular Volume (MCV) ([2]; OMN6 20 μM, 30 min): 64
Number of live erythrocytes ([2]; OMN6 20 μM, 30 min): 1.65 cells*10^6/ml
Erythrocytes Mean Corpuscular Volume (MCV) ([2]; OMN6 20 μM, 60 min): 64
Number of live erythrocytes ([2]; OMN6 20 μM, 60 min): 1.70 cells*10^6/ml
Erythrocytes Mean Corpuscular Volume (MCV) ([2]; OMN6 20 μM, 120 min): 63
Number of live erythrocytes ([2]; OMN6 20 μM, 120 min): 1.71 cells*10^6/ml
Erythrocytes Mean Corpuscular Volume (MCV) ([2]; OMN6 20 μM, 180 min): 64
Number of live erythrocytes ([2]; OMN6 20 μM, 180 min): 1.70 cells*10^6/ml
Erythrocytes Mean Corpuscular Volume (MCV) ([2]; OMN6 40 μM, 30 min): 64
Number of live erythrocytes ([2]; OMN6 40 μM, 30 min): 1.60 cells*10^6/ml
Erythrocytes Mean Corpuscular Volume (MCV) ([2]; OMN6 40 μM, 60 min): 64
Number of live erythrocytes ([2]; OMN6 40 μM, 60 min): 1.80 cells*10^6/ml
Erythrocytes Mean Corpuscular Volume (MCV) ([2]; OMN6 40 μM, 120 min): 63
Number of live erythrocytes ([2]; OMN6 40 μM, 120 min): 1.77 cells*10^6/ml
Erythrocytes Mean Corpuscular Volume (MCV) ([2]; OMN6 40 μM, 180 min): 64
Number of live erythrocytes ([2]; OMN6 40 μM, 180 min): 1.76 cells*10^6/ml
Hemolysis of human erythrocytes ([2]; human blood samples): hemolysis of cells did not occur
Histological analysis ([3]; IP single dose 16 mg/kg (data not shown)): No evidence of pathological changes or aberrations
Hemolysis of erythrocytes (Free Hgb assay) ([3]; IP single dose 16 mg/kg, day 4): No evidence of hemolysis
Clinical signs (diarrhea, bloody diarrhea, stand-on-end hair, apathy or restlessness) [3, 6]: not observed
Mortality [3, 6]: not observed
Toxic or otherwise adverse effects [3, 6]: does not exert any toxic or otherwise adverse effects
Weight-loss [3, 6]: not observed
MIC value ([4]; Sens. 25922): 6.25 µM (≈ 27.1 µg/mL)
Minimal Inhibitory Conc. (MIC) ([4]; Sens. 25922, 17 h): 12.5 µM
MIC [5]: 5 µM (≈ 21.7 µg/mL)

Reference: patent US20200399329A1, “ANTIMICROBIAL PEPTIDES” (priority 2015, published 2020)
